Data reported in ChEMBL document CHEMBL5036333, “Cryptoyunnanones A-H, Complex Flavanones from Cryptocarya yunnanensis” (J Nat Prod, 2021).
Where a name gives a salt, the structure may show the parent alone.

What was measured:
Type in all cases: functional, cell-based
[1] = tested on: A549; experiment: Cytotoxicity against human A549 cells assessed as cell growth inhibition measured after 48 hrs by MTT assay; conditions: A549, 48 h
[2] = tested on: HCT-116; experiment: Cytotoxicity against human HCT-116 cells assessed as cell growth inhibition measured after 48 hrs by MTT assay; conditions: HCT-116, 48 h
[3] = tested on: MDA-MB-231; experiment: Cytotoxicity against human MDA-MB-231 cells assessed as cell growth inhibition measured after 48 hrs by MTT assay; conditions: MDA-MB-231, 48 h
[4] = tested on: PC-3; experiment: Cytotoxicity against human PC-3 cells assessed as cell growth inhibition measured after 48 hrs by MTT assay; conditions: PC-3, 48 h

| SMILES | IC50 [1] | IC50 [2] | IC50 [3] | IC50 [4] |
| --- | --- | --- | --- | --- |
| O=C1C=CC[C@H](C[C@@H]2C[C@@H]3C[C@@](/C=C/c4ccccc4)(Oc4cc(O)c5c(c43)O[C@H](c3ccccc3)CC5=O)O2)O1 | > 10 µM | 8.1 µM | 9.1 µM | 7.8 µM |
| O=C(O)CCC[C@@H]1C[C@@H]2C[C@@](/C=C/c3ccccc3)(Oc3cc(O)c4c(c32)O[C@H](c2ccccc2)CC4=O)O1 | > 10 µM | > 10 µM | > 10 µM | > 10 µM |
| COc1cccc2c1C(=O)c1c(O)c3c(c(O)c1C2=O)C[C@@](O)(C(=O)CO)C[C@@H]3O[C@H]1C[C@H](N)[C@H](O)[C@H](C)O1 [DOXORUBICIN HYDROCHLORIDE] | – | – | 0.2 µM | 0.2 µM |
| O=C1C=CC[C@H](C[C@@H]2C[C@@H]3C[C@@](CCc4ccccc4)(Oc4cc(O)c5c(c43)O[C@H](c3ccccc3)CC5=O)O2)O1 | > 10 µM | 6.4 µM | 8.6 µM | 7.2 µM |
| O=C(O)CCC[C@@H]1C[C@@H]2C[C@@](/C=C/c3ccccc3)(Oc3cc(O)c4c(c32)O[C@@H](c2ccccc2)CC4=O)O1 | > 10 µM | > 10 µM | > 10 µM | > 10 µM |
| O=C1C=CC[C@H](C[C@@H]2C[C@@H]3C[C@@](/C=C/c4ccccc4)(Oc4cc(O)c5c(c43)O[C@@H](c3ccccc3)CC5=O)O2)O1 | > 10 µM | 9 µM | 9.1 µM | 7.6 µM |
| COC(=O)CCC[C@@H]1C[C@@H]2C[C@@](/C=C/c3ccccc3)(Oc3cc(O)c4c(c32)O[C@@H](c2ccccc2)CC4=O)O1 | > 10 µM | > 10 µM | > 10 µM | > 10 µM |
| O=C1C=CC[C@H](C[C@@H]2C[C@@H]3C[C@@](CCc4ccccc4)(Oc4cc(O)c5c(c43)O[C@@H](c3ccccc3)CC5=O)O2)O1 | > 10 µM | 6.9 µM | 8.5 µM | 7.2 µM |
| COC(=O)CCC[C@@H]1C[C@@H]2C[C@@](/C=C/c3ccccc3)(Oc3cc(O)c4c(c32)O[C@H](c2ccccc2)CC4=O)O1 | > 10 µM | > 10 µM | > 10 µM | > 10 µM |
